For three compounds, MIC results are on record in patent US11535643B2, “Macrolides with modified desosamine sugars and uses thereof” (President and Fellows of Harvard College, priority 2015, dated 2022).

Format in all cases: cell-based
The subject of one test is S. aureus. As to the kind of experiment: Broth dilution MIC determination (CLSI) against S. aureus strains. To be noted: Staphylococcus aureus. The method in brief:
(§1)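 MICs were determined by CLSI standard broth dilution against several strains per species, including multidrug-resistant and macrolide-resistant strains. Azithromycin and solithromycin served as control compounds.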
(In general: Broth dilution looks for growth in wells or tubes with falling amounts of substance.)

A further test deals with S. pneumoniae. As to the kind of experiment: Broth dilution MIC determination (CLSI) against S. pneumoniae strains. As to conditions: Streptococcus pneumoniae. The method, boiled down:
as §1

The test system of another test is S. pyogenes. As to the kind of experiment: Broth dilution MIC determination (CLSI) against S. pyogenes strains. As to conditions: Streptococcus pyogenes. The method in brief: as §1
Another test deals with E. faecalis. As to the kind of experiment: Broth dilution MIC determination (CLSI) against E. faecalis strains. As to conditions: Enterococcus faecalis. The method in brief: as §1
The test system of a further test is E. coli. Nature of the test: Broth dilution MIC determination (CLSI) against E. coli strains. To be noted: Escherichia coli. The method in brief:
as §1

A further test deals with A. baumannii. As to the kind of experiment: Broth dilution MIC determination (CLSI) against A. baumannii strains. To be noted: Acinetobacter baumannii. The method in brief: as §1
The next test has as its system K. pneumoniae. Nature of the test: Broth dilution MIC determination (CLSI) against K. pneumoniae strains. As to conditions: Klebsiella pneumoniae. The method, boiled down: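 CLSI broth-dilution MICs across a panel including multidrug- and macrolide-resistant strains, with azithromycin and solithromycin as control compounds.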
The test system of another test is P. aeruginosa. Nature of the test: Broth dilution MIC determination (CLSI) against P. aeruginosa strains. The method, boiled down: as §1
Another test deals with H. influenzae. As to the kind of experiment: Broth dilution MIC determination (CLSI) against H. influenzae strains. To be noted: Haemophilus influenzae. From the text:
Minimum inhibitory concentrations (MICs) for macrolides described herein have been determined for unique strains of S. aureus, S. pneumoniae, S. pyogenes, E. faecalis, E. coli, A. baumannii, K. pneumoniae, P. aeruginosa, and H. influenzae, including several multidrug-resistant strains, with a special focus on macrolide resistant mechanisms. Azithromycin and solithromycin were included as control compounds. CLSI standard procedures for broth dilution MIC determination were used. Data for exemplary compounds described herein is shown in Tables M1-M7 and in Tables N1-N4.

The mark [1] stands for this setting: read-out: MIC S. aureus erm A genotype.
The mark [2] stands for this setting: ATCC49619, ATCC49619, read-out: MIC S. pneumoniae ATCC49619.
[3] abbreviates: read-out: MIC S. pneumoniae mef A genotype, mef A genotype.
The mark [4] stands for this setting: read-out: MIC S. pneumoniae mef A genotype, mef A genotype, first of two such columns (c3).
The mark [5] stands for this setting: ATCC25922, ATCC25922, read-out: MIC E. coli ATCC25922.
[6] abbreviates: read-out: MIC E. coli NDM-1, NDM-1.
Setting [7] is: ATCC29213, ATCC29213, read-out: MIC S. aureus ATCC29213.
Where [8] appears, read: MRSA / USA100, MRSA: USA100, read-out: MIC S. aureus MRSA: USA100.
Where [9] appears, read: MRSA / USA300, MRSA: USA300, read-out: MIC S. aureus MRSA: USA300.
Where [10] appears, read: USA600, USA600, GISA, read-out: MIC S. aureus USA600, GISA.
Where [11] appears, read: erm B + mef A genotype, read-out: MIC S. pneumoniae erm B + mef A genotype.
The mark [12] stands for this setting: erm B + tet(M, O) genotype, read-out: MIC S. pneumoniae erm B + tet(M, O) genotype.
Setting [13] is: ATCC19615, ATCC19615, read-out: MIC S. pyogenes ATCC19615.
Setting [14] is: macrolide-resistant, read-out: MIC S. pyogenes macrolide-resistant.
Setting [15] is: ATCC29212, ATCC29212, read-out: MIC E. faecalis ATCC29212.
Setting [16] is: Vancomycin-resistant, read-out: MIC E. faecalis Vancomycin-resistant.
Where [17] appears, read: ATCC19606, ATCC19606, read-out: MIC A. baumannii ATCC19606.
Where [18] appears, read: imipenem-resistant, read-out: MIC A. baumannii imipenem-resistant.
Where [19] appears, read: ATCC10031, ATCC10031, read-out: MIC K. pneumoniae ATCC10031.
Where [20] appears, read: KPC-2, read-out: MIC K. pneumoniae KPC-2.
The mark [21] stands for this setting: Pseudomonas aeruginosa, ATCC27853; read-out: MIC P. aeruginosa ATCC27853.
Setting [22] is: ATCC49247, ATCC49247, read-out: MIC H. influenzae ATCC49247.
[23] abbreviates: erythro > 4, azithro 1, read-out: MIC H. influenzae erythro > 4, azithro 1.

≈ marks a conversion by molar mass, not a printed value. Read-outs that look alike come from different tables or passages of the source.

On to `CC[C@H]1OC(=O)[C@H](C)C(=O)[C@H](C)[C@@H](O[C@@H]2OC(CNC=N)CC(N(C)C)C2O)[C@](C)(OC)C[C@@H](C)CN[C@H](C)[C@H]2N(CCCCn3cc(-c4cccc(N)c4)nn3)C(=O)O[C@]12C` (stereo partly drawn) [FSM-21861], for which the MIC is over 32 µg/mL with S. aureus (ATCC29213, read-out: MIC S. aureus ATCC29213); over 32 µg/mL in the test on S. aureus (MRSA / USA100, read-out: MIC S. aureus MRSA: USA100); over 32 µg/mL with S. aureus (MRSA / USA300, read-out: MIC S. aureus MRSA: USA300); over 32 µg/mL with S. aureus (USA600, read-out: MIC S. aureus USA600, GISA); over 32 µg/mL with S. aureus (setting [1]); 0.5 µg/mL (≈ 0.575 µM) in the test with S. pneumoniae (setting [2]). The MIC turned out to be 32 µg/mL with S. pneumoniae (read-out: MIC S. pneumoniae erm B + mef A genotype, erm B + mef A genotype); 0.25 µg/mL with S. pneumoniae (read-out: MIC S. pneumoniae erm B + tet(M, O) genotype, erm B + tet(M, O) genotype); 8 µg/mL (≈ 9.19 µM) with S. pneumoniae (setting [3]); 4 µg/mL (≈ 4.6 µM) in the test on S. pneumoniae (setting [4]); 0.5 µg/mL (≈ 0.575 µM) in the test on S. pyogenes (ATCC19615, read-out: MIC S. pyogenes ATCC19615); 8 µg/mL (≈ 9.19 µM) in the test with S. pyogenes (read-out: MIC S. pyogenes macrolide-resistant). Also, the MIC is 4 µg/mL (≈ 4.6 µM) with E. faecalis (ATCC29212, read-out: MIC E. faecalis ATCC29212); over 32 µg/mL in the test on E. faecalis (read-out: MIC E. faecalis Vancomycin-resistant); over 32 µg/mL in the test on E. coli (setting [5]); over 32 µg/mL with E. coli (setting [6]); over 32 µg/mL in the test with A. baumannii (ATCC19606, read-out: MIC A. baumannii ATCC19606); over 32 µg/mL in the test on A. baumannii (read-out: MIC A. baumannii imipenem-resistant). Besides, the MIC was 16 µg/mL (≈ 18.4 µM) in the test with K. pneumoniae (ATCC10031, read-out: MIC K. pneumoniae ATCC10031); over 32 µg/mL with K. pneumoniae (read-out: MIC K. pneumoniae KPC-2); over 32 µg/mL with P. aeruginosa (Pseudomonas aeruginosa, ATCC27853, read-out: MIC P. aeruginosa ATCC27853); 32 µg/mL (≈ 36.8 µM) in the test with H. influenzae (ATCC49247, read-out: MIC H. influenzae ATCC49247); 32 µg/mL (≈ 36.8 µM) with H. influenzae (read-out: MIC H. influenzae erythro > 4, azithro 1).
As for `CC[C@H]1OC(=O)[C@H](C)C(=O)[C@H](C)[C@@H](O[C@@H]2OC(CNS(=O)(=O)c3cccnc3)CC(N(C)C)C2O)[C@](C)(OC)C[C@@H](C)CN[C@H](C)[C@H]2N(CCCCn3cc(-c4cccc(N)c4)nn3)C(=O)O[C@]12C` (stereo partly drawn) [FSM-21876], the MIC was 16 µg/mL (≈ 16.3 µM) with S. aureus (setting [7]); over 32 µg/mL with S. aureus (setting [8]); over 32 µg/mL in the test with S. aureus (setting [9]); over 32 µg/mL with S. aureus (setting [10]); over 32 µg/mL in the test on S. aureus (setting [1]); 0.125 µg/mL (≈ 0.127 µM) in the test on S. pneumoniae (setting [2]). The MIC with S. pneumoniae (setting [11]) was 8 µg/mL; in the test with S. pneumoniae (setting [12]), 0.0313 µg/mL; in the test with S. pneumoniae (setting [3]), 16 µg/mL (≈ 16.3 µM); with S. pneumoniae (setting [4]), 4 µg/mL (≈ 4.06 µM); with S. pyogenes (setting [13]), 0.0625 µg/mL (≈ 0.0635 µM); in the test with S. pyogenes (setting [14]), 2 µg/mL (≈ 2.03 µM). Further, the MIC in the test on E. faecalis (setting [15]) was 2 µg/mL (≈ 2.03 µM); in the test on E. faecalis (setting [16]) it was over 32 µg/mL; with E. coli (setting [5]) it was 32 µg/mL (≈ 32.5 µM); with E. coli (setting [6]), over 32 µg/mL; in the test on A. baumannii (setting [17]), over 32 µg/mL; with A. baumannii (setting [18]), 32 µg/mL (≈ 32.5 µM). Moreover, the MIC in the test with K. pneumoniae (setting [19]) is 16 µg/mL (≈ 16.3 µM); in the test with K. pneumoniae (setting [20]) it was 32 µg/mL (≈ 32.5 µM); with P. aeruginosa (setting [21]), over 32 µg/mL; in the test with H. influenzae (setting [22]), 4 µg/mL (≈ 4.06 µM); with H. influenzae (setting [23]), 16 µg/mL (≈ 16.3 µM).
Take `CC[C@H]1OC(=O)[C@H](C)C(=O)[C@H](C)[C@@H](O[C@@H]2OC(CN(CCN)CCN)CC(N(C)C)C2O)[C@](C)(OC)C[C@@H](C)CN[C@H](C)[C@H]2N(CCCCn3cc(-c4cccc(N)c4)nn3)C(=O)O[C@]12C` (stereo partly drawn) [FSM-21877]: the MIC is over 32 µg/mL in the test with S. aureus (setting [7]); over 32 µg/mL with S. aureus (setting [8]); over 32 µg/mL in the test on S. aureus (setting [9]); over 32 µg/mL in the test with S. aureus (setting [10]); over 32 µg/mL in the test with S. aureus (setting [1]); 1 µg/mL (≈ 1.08 µM) in the test on S. pneumoniae (setting [2]). The MIC amounted to 32 µg/mL in the test with S. pneumoniae (setting [11]); 0.5 µg/mL in the test with S. pneumoniae (setting [12]); 16 µg/mL (≈ 17.2 µM) with S. pneumoniae (setting [3]); 8 µg/mL (≈ 8.61 µM) in the test with S. pneumoniae (setting [4]); 0.5 µg/mL (≈ 0.538 µM) with S. pyogenes (setting [13]); 16 µg/mL (≈ 17.2 µM) in the test with S. pyogenes (setting [14]). The MIC in the test on E. faecalis (setting [15]) was 8 µg/mL (≈ 8.61 µM); with E. faecalis (setting [16]), over 32 µg/mL; in the test on E. coli (setting [5]) it was over 32 µg/mL; in the test with E. coli (setting [6]), 32 µg/mL (≈ 34.4 µM); with A. baumannii (setting [17]), over 32 µg/mL; in the test with A. baumannii (setting [18]), over 32 µg/mL. Also, the MIC with K. pneumoniae (setting [19]) was 16 µg/mL (≈ 17.2 µM); with K. pneumoniae (setting [20]) it was 32 µg/mL (≈ 34.4 µM); in the test with P. aeruginosa (setting [21]), over 32 µg/mL; in the test on H. influenzae (setting [22]) it was 32 µg/mL (≈ 34.4 µM); with H. influenzae (setting [23]), 32 µg/mL (≈ 34.4 µM).
